Experiment [1] deals with Tyrosine-protein kinase ABL1 (Homo sapiens), P00519 [H396P]. Kind of experiment: Inhibition of human non-phosphorylated ABL1 H396P mutant (S229 to K512 residues) expressed in mammalian expression system at 1 uM by Kinomescan method relative to control.
Experiment [2] concerns the target Calcium/calmodulin-dependent protein kinase type 1 (Homo sapiens) (UniProt Q14012). Briefly: Inhibition of wild-type human full length CAMK1 (M1 to L370 residues) expressed in bacterial expression system at 1 uM by Kinomescan method relative to control.
Experiment [3] addresses Calcium/calmodulin-dependent protein kinase type 1B (Homo sapiens) (UniProt Q6P2M8). Briefly: Inhibition of wild-type human partial length CAMK1B (W9 to A311 residues) expressed in mammalian expression system at 1 uM by Kinomescan method relative to control.
Experiment [4] addresses Calcium/calmodulin-dependent protein kinase kinase 1 (Homo sapiens) (UniProt Q8N5S9). Briefly: Inhibition of wild-type human partial length CAMKK1 (R65 to E414 residues) expressed in bacterial expression system at 1 uM by Kinomescan method relative to control.
The target of experiment [5] is Dual specificity protein kinase CLK2 (Homo sapiens) (UniProt P49760). Briefly: Inhibition of wild-type human partial length CLK2 (D144 to R498 residues) expressed in bacterial expression system at 1 uM by Kinomescan method relative to control.
Dual specificity protein kinase CLK2 (Homo sapiens), sequence (P49760 whole entry, looked up, the tested form may be a part): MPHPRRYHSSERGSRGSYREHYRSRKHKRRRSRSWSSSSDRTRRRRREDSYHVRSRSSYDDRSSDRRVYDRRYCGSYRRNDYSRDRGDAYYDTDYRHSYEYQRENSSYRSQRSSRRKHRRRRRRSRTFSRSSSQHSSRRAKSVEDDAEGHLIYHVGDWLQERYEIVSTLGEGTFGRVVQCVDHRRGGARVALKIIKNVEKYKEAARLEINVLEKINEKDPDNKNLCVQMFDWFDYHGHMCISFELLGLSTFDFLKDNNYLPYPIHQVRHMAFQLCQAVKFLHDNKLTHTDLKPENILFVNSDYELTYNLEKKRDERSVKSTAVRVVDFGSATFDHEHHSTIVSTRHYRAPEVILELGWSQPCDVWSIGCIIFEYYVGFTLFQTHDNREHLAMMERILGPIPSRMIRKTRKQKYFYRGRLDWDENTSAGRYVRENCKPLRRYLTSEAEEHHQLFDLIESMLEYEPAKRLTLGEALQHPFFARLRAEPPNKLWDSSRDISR
The target of experiment [6] is Macrophage colony-stimulating factor 1 receptor (Homo sapiens) (UniProt P07333). Kind of experiment: Inhibition of wild-type human partial length CSF1R (I564 to S939 residues) expressed in bacterial expression system at 1 uM by Kinomescan method relative to control.
Experiment [7] deals with Fibroblast growth factor receptor 3 (Homo sapiens) (UniProt P22607). Kind of experiment: Inhibition of wild-type human partial length FGFR3 (R442 to S771 residues) expressed in bacterial expression system at 1 uM by Kinomescan method relative to control.
For experiment [8], the system named is Receptor-type tyrosine-protein kinase FLT3 (Homo sapiens), P36888 [K663Q]. Kind of experiment: Inhibition of human partial length FLT3 K663Q mutant (V592 to Y969 residues) expressed in bacterial expression system at 1 uM by Kinomescan method relative to control.
Experiment [9] has as its target Vascular endothelial growth factor receptor 3 (Homo sapiens) (UniProt P35916). Kind of experiment: Inhibition of wild-type human partial length FLT4 (E821 to E1196 residues) expressed in bacterial expression system at 1 uM by Kinomescan method relative to control.
Experiment [10] deals with Beta-adrenergic receptor kinase 1 (Homo sapiens) (UniProt P25098). Briefly: Inhibition of wild-type human full length GRK2 (M1 to L689 residues) expressed in mammalian expression system at 1 uM by Kinomescan method relative to control.
Beta-adrenergic receptor kinase 1 (Homo sapiens), sequence (P25098 whole entry, the tested form may be a part): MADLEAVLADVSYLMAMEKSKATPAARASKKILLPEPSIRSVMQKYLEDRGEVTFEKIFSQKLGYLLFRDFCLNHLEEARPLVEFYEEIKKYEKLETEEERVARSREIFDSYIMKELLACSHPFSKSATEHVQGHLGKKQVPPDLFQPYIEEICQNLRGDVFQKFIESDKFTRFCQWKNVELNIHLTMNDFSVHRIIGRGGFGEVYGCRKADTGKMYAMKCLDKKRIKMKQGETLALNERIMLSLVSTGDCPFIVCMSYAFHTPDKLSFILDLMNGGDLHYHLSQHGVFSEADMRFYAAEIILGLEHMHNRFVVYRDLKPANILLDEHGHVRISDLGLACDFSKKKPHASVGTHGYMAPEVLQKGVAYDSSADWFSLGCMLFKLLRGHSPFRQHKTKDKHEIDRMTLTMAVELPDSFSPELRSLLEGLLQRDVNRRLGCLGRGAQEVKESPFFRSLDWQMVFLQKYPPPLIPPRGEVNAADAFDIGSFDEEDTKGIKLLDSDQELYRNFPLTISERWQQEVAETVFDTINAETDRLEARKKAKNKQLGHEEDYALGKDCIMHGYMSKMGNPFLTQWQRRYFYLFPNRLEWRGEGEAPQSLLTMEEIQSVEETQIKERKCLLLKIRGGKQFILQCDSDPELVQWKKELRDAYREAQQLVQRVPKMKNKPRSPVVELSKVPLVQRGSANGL
In experiment [11] the target is Mitogen-activated protein kinase kinase kinase kinase 2 (Homo sapiens) (UniProt Q12851). Kind of experiment: Inhibition of wild-type human partial length MAP4K2 (M1 to G318 residues) expressed in mammalian expression system at 1 uM by Kinomescan method relative to control.
Experiment [12] addresses Mitogen-activated protein kinase kinase kinase 11 (Homo sapiens) (UniProt Q16584). Briefly: Inhibition of wild-type human partial length MLK3 (I77 to W399 residues) expressed in bacterial expression system at 1 uM by Kinomescan method relative to control.
Experiment [13] deals with Cyclin-dependent kinase 18 (Homo sapiens) (UniProt Q07002). Briefly: Inhibition of wild-type human full length PCTK3 (M3 to F474 residues) expressed in bacterial expression system at 1 uM by Kinomescan method relative to control.
Cyclin-dependent kinase 18 (Homo sapiens), sequence (Q07002 whole entry, the tested form may be a part): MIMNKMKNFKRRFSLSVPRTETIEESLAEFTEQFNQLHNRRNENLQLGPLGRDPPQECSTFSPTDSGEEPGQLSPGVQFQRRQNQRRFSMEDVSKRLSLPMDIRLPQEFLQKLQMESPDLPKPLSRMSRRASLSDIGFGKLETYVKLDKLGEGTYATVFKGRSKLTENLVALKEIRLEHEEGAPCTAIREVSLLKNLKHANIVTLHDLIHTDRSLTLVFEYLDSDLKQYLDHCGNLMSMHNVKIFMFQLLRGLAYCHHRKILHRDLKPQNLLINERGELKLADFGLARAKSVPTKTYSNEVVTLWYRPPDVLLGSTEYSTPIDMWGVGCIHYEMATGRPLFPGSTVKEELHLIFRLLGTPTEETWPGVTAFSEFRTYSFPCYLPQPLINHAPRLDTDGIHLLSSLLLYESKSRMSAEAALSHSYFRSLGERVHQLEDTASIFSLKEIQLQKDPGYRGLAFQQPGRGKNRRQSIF
For experiment [14], the target named is Phosphatidylinositol 4-phosphate 3-kinase C2 domain-containing subunit beta (Homo sapiens) (UniProt O00750). Briefly: Inhibition of wild-type human partial length PIK3C2B (M1 to L1634 residues) expressed in mammalian expression system at 1 uM by Kinomescan method relative to control.
Experiment [15] deals with Phosphatidylinositol 5-phosphate 4-kinase type-2 gamma (Homo sapiens) (UniProt Q8TBX8). Kind of experiment: Inhibition of wild-type human partial length PIP5K2C (M1 to A421 residues) expressed in mammalian expression system at 1 uM by Kinomescan method relative to control.
Experiment [16] deals with Serine/threonine-protein kinase PLK1 (Homo sapiens) (UniProt P53350). Briefly: Inhibition of wild-type human partial length PLK1 (A33 to F325 residues) expressed in mammalian expression system at 1 uM by Kinomescan method relative to control.
Experiment [17] deals with Serine/threonine-protein kinase TNNI3K (Homo sapiens) (UniProt Q59H18). Kind of experiment: Inhibition of wild-type human full length TNNI3K (M1 to S835 residues) expressed in bacterial expression system at 1 uM by Kinomescan method relative to control.
Experiment [18] addresses Non-receptor tyrosine-protein kinase TYK2 (Homo sapiens) (UniProt P29597). Kind of experiment: Inhibition of wild-type human partial length TYK2 JH2 pseudokinase domain (G556 to D888 residues) expressed in mammalian expression system at 1 uM by Kinomescan method relative to control.
The target of experiment [19] is Cyclin-dependent kinase 11B (Homo sapiens) (UniProt P21127). Briefly: Inhibition of wild-type human partial length CDC2L1 (P353 to G692 residues) expressed in bacterial expression system at 10 uM by Kinomescan method relative to control.
Cyclin-dependent kinase 11B (Homo sapiens), sequence (P21127 whole entry, the tested form may be a part): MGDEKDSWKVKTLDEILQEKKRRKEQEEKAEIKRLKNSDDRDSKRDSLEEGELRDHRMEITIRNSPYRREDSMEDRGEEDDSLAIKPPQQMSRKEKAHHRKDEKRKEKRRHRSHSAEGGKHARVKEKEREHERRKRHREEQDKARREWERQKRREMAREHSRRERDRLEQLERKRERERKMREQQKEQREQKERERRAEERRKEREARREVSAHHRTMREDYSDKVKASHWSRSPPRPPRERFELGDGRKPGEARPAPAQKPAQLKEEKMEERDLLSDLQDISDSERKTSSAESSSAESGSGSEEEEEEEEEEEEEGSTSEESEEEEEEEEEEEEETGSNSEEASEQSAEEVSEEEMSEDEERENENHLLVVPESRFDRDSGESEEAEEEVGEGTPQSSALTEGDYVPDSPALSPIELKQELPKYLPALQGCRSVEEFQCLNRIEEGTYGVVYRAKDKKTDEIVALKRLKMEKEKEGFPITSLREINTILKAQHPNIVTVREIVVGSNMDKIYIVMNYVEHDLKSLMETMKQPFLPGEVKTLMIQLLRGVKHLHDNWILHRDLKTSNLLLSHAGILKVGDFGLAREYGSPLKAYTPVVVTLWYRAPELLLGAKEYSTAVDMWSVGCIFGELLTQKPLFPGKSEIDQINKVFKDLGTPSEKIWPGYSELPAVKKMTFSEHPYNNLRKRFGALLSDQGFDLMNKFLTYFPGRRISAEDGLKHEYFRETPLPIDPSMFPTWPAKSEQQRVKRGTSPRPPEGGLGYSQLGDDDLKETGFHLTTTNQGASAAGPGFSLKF
Experiment [20] concerns the target Cyclin-dependent kinase 4 (Homo sapiens) (UniProt P11802). Briefly: Inhibition of wild-type human full length CDK4 (M1 to E303 residues) expressed in mammalian expression system at 10 uM by Kinomescan method relative to control.
The target of experiment [21] is Dual specificity protein kinase CLK2 (Homo sapiens) (UniProt P49760). Briefly: Inhibition of wild-type human partial length CLK2 (D144 to R498 residues) expressed in bacterial expression system at 10 uM by Kinomescan method relative to control.
Experiment [22] deals with Serine/threonine-protein kinase DCLK1 (Homo sapiens) (UniProt O15075). Kind of experiment: Inhibition of wild-type human partial length DCAMKL1 (L270 to A662 residues) expressed in mammalian expression system at 10 uM by Kinomescan method relative to control.
Experiment [23] concerns Epidermal growth factor receptor (Homo sapiens), P00533 [L858R]. Kind of experiment: Inhibition of human partial length EGFR L858R mutant (R669 to V1011 residues) expressed in bacterial expression system at 10 uM by Kinomescan method relative to control.
For experiment [24], the target named is Ephrin type-B receptor 2 (Homo sapiens) (UniProt P29323). Kind of experiment: Inhibition of wild-type human partial length EPHB2 (I597 to L902 residues) expressed in bacterial expression system at 10 uM by Kinomescan method relative to control.
Ephrin type-B receptor 2 (Homo sapiens), sequence (P29323 whole entry, the tested form may be a part): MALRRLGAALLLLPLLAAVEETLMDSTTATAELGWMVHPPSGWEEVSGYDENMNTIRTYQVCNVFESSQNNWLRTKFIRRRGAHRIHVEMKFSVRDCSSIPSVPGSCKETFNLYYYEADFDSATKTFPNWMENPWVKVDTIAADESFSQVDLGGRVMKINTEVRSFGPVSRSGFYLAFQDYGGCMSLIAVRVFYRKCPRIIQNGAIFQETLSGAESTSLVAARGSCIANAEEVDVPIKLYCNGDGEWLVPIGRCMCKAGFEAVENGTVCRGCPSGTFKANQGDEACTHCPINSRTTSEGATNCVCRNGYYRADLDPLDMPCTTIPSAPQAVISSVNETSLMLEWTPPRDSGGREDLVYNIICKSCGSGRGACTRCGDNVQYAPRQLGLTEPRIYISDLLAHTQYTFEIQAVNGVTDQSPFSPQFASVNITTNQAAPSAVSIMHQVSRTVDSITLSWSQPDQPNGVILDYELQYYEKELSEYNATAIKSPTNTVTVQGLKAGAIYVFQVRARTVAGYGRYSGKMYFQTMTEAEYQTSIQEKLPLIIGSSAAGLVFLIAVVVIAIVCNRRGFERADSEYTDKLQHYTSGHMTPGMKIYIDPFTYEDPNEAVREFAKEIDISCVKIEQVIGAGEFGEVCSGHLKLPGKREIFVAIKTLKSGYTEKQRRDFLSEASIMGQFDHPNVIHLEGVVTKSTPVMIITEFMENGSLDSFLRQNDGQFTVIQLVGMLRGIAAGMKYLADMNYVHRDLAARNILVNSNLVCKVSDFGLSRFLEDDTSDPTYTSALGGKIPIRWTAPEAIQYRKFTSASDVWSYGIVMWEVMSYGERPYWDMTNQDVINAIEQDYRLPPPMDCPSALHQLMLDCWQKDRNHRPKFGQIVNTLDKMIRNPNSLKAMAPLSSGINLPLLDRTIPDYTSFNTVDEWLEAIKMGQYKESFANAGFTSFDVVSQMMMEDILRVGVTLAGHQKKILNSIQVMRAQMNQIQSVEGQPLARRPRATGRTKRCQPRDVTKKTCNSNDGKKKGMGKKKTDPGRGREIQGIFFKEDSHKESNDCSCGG
Experiment [25] addresses Insulin receptor (Homo sapiens) (UniProt P06213). Kind of experiment: Inhibition of wild-type human partial length INSR (P997 to E1318 residues) expressed in mammalian expression system at 10 uM by Kinomescan method relative to control.
Experiment [26] has as its target Mitogen-activated protein kinase kinase kinase 4 (Homo sapiens) (UniProt Q9Y6R4). Briefly: Inhibition of wild-type human partial length MAP3K4 (G1319 to E1608 residues) expressed in bacterial expression system at 10 uM by Kinomescan method relative to control.
In experiment [27] the target is Tyrosine-protein kinase Mer (Homo sapiens) (UniProt Q12866). Kind of experiment: Inhibition of wild-type human partial length MERTK (R557 to L884 residues) expressed in bacterial expression system at 10 uM by Kinomescan method relative to control.

Non-receptor tyrosine-protein kinase TYK2 (Homo sapiens), sequence (P29597 whole entry, the tested form may be a part): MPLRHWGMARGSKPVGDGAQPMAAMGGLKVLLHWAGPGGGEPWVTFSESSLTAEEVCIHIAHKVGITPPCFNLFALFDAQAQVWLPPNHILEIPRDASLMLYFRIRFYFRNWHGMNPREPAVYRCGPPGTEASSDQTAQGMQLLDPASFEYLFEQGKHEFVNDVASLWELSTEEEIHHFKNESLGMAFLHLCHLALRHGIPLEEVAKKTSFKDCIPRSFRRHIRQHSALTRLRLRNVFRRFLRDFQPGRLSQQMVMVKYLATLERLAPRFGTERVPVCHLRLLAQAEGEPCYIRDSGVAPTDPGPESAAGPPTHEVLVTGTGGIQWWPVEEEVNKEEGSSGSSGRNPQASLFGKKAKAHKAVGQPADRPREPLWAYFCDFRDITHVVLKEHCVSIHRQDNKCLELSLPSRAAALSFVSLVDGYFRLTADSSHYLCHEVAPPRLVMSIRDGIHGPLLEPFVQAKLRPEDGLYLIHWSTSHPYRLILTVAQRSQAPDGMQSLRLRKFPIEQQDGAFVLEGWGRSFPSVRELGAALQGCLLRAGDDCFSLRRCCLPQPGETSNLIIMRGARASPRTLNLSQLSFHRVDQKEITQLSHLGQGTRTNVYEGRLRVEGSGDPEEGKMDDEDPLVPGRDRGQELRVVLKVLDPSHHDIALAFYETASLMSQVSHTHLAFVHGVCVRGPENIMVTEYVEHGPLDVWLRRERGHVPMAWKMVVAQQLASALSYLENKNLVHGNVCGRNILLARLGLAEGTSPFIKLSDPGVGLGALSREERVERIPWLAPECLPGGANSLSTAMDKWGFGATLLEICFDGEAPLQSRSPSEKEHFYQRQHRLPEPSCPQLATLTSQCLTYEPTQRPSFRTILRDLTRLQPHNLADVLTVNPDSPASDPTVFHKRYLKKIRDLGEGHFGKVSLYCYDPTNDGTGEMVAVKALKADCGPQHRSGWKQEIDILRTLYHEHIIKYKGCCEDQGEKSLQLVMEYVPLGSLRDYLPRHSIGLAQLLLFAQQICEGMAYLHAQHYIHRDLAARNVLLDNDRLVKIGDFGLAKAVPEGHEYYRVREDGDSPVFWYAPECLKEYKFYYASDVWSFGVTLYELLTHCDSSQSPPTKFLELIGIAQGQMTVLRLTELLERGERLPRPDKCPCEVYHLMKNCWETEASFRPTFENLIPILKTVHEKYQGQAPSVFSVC
Calcium/calmodulin-dependent protein kinase type 1 (Homo sapiens), sequence (Q14012 whole entry, looked up, the tested form may be a part): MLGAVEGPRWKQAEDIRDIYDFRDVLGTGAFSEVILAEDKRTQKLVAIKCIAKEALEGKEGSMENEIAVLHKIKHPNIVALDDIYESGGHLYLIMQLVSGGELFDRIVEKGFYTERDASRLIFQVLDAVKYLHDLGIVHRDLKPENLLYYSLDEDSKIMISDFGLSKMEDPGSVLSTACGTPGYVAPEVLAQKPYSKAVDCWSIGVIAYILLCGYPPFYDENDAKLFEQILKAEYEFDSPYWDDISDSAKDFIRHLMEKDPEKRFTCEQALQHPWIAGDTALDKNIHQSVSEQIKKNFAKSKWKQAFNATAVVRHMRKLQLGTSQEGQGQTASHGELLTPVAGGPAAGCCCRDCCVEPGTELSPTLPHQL

On to `O=C(Nc1cccc([C@@H]2CN(c3ncnc4[nH]ccc34)CCN2CCO)c1)Nc1c(F)cccc1N1CCCC1`, for which the inhibition in experiment [1] came out at 96%; in experiment [2], 95%; in [3] it was 98%; in experiment [4], 100%; in experiment [5] it was 86%; in experiment [6], 67%. The inhibition in experiment [7] is 83%; in [8], 42%; in [9], 16%; in [10], 96%; in [11], 82%; in [12], 100%. The inhibition in experiment [13] came to 97%; in experiment [14], 87%; in [15], 83%; in [16], 86%; in [17], 100%; in experiment [18], 71%.
With `O=C(Nc1cccc([C@H]2CCCN(c3ncnc4[nH]ccc34)C2)c1)Nc1ccccc1N1CCCC1`, the inhibition in experiment [19] came out at 58%; in [20], 100%; in experiment [21], 53%; in [22], 52%; in [23], 76%; in experiment [24] it was 69%. Besides, the inhibition is 81% in [25], 87% in experiment [26] and 31% in experiment [27].

The term inhibition denotes the percentage by which the read-out fell short of the control.

Source of the values: ChEMBL document CHEMBL4387741, “Optimization of novel reversible Bruton's tyrosine kinase inhibitors identified using Tethering-fragment-based screens” (Bioorg Med Chem, 2019).
